Tests used:
[1] = test system: STAT3 phosphorylation (JAK-STAT pathway); test: p-STAT3 Western blotting in GBM1 neurospheres; type: cell-based, human; conditions: for phosphorylation of STAT3: 20 ng/ml LIF (time course) or 100 pM TGFβ1 for 4 hours
Procedure: FIG. 5. TGFβ induces the LIF-JAK-STAT pathway in GEM neurospheres derived from patients. (A) The levels of p-STAT3 and STAT3 were determined by means of Western blotting of neurospheres of the sample of GBM1 treated with 20 ng/ml LIF for the indicated time periods. (B) The neurospheres of the sample of GBM1 were treated with 20 ng/ml LIF and/or 0.5 pM P6 for 15 minutes and the levels of total p-STAT3 and STAT3 were determined by means of Western blotting. (C) The neurospheres of the sample of GBM1 were treated with 100 pM TGFβ1 or the 2 pM TβRI inhibitor for 4 hours in the absence of EFG and FGF and the levels of p-STAT3, STAT3, p-Smad2, Smad2 and α-tubulin were determined by means of Western blotting. (D) the neurospheres of the sample of GBM1 were treated with 100 pM TGFβ1, 0.5 μM P6 or the blocking antibody against LIF for 4 hours in the absence of EGF and FGF and the levels of total p-STAT3 and STAT3 were determined by means of Western blotting.
Genomic DNA of U373MG was used to amplify the −634/+32 region of the human LIF promoter which was cloned into the pGL2-basic luciferase vector. The deletion constructs (−267/+32), and (−73/+32) were generated by means of digestion of the construct (−634/+32). Two point mutations were introduced in positions −183 bp and −184 bp in the construct (−267/+32) to interrupt the Smad binding element (SBE) and generate the construct (−267/+32) mutSBE. TGFβ1, TGFβ2, TGFβ3 (R&D Systems), TβRI inhibitor (SB431542, Tocris), LIF (Chemicon), the neutralizing antibodies against LIF (R&D), JAK inhibitor (tetracyclic pyridone 6 (P6) Calbiochem), the assembly of SMART siRNAs targeted to Smad2, Smad3 and Smad4 (Dharmacon), and the control siRNA siGlo (Dharmacon) were used at the indicated concentrations. The antibodies specific against p-Smad2, Smad2, p-STAT3 (p-Tyr705) and total STAT3 (Cell Signalling) and against Smad2, Smad3 and Smad4 (Hata et al., (2000) Cell 100, 229-240) were used for Western blotting.
In order to distinguish whether the LIF signaling pathway is functional in GEM neurospheres, the neurospheres were treated with recombinant LIF and the levels of phosphorylation of the downstream substrate of the LIF receptor complex, STAT3, were determined. […] Furthermore, the induction of p-STAT3 was prevented by the presence of a pharmacological JAK-specific, tetracyclic pyridone 6 (P6) (Pedranzini et al., 2006, Cancer Res, 66: 9714-9721; Thompson et al., 2002, Bioorg Med Chem Lett, 12:1219-1223) (FIG. 5B). […] It was decided to assess whether LIP was mediating the induction of p-STAT3 by TGFβ. For this purpose, a neutralizing antibody against LIF was used to specifically block the effect of secreted LIP on cells treated with TGFβ. The presence of the neutralizing antibody of LIP decreased the induction of p-STAT3 by TGFβ. Furthermore, the levels of p-STAT3 in cells treated with TGFβ were repressed by means of the treatment with P6 (FIG. 5D).

[2] = test system: GICs (glioma initiating cells) / GBM neurospheres; test: Self-renewal assay of GBM neurospheres (GICs derived from patients); type: cell-based, human; conditions: for number of newly formed neurospheres / total number of cells: GBM1, GBM2, GBM3 neurosphere cells, 7 days in the absence of growth factors, 100 pM TGFβ1 or 20 ng/ml LIF
Procedure: FIG. 1. Effect of TGFβ on the self-renewal of GIC derived from patients. (A) Representative images of PCTCs and neurospheres of GBM generated from samples of 3 different patients with GBM (GBM1, GBM2, GBM3). (B) Musashi-1 (Msi-1), Sox2, Nestin and β-actin were determined by means of RT-PCR analysis of PCTCs and neurospheres of 3 samples of human GBM. (C) 100,000 neurosphere (nsph.) or PCTC cells obtained from samples of GBM1, GBM2 and GBM3 tumors were intracranially inoculated in three Balbc nu/nu mice in each case. Magnetic resonance imaging (MRI) studies were performed on days 30-40 in each mouse. The images represent an example of mice inoculated with neurosphere or PCTC cells obtained from GBM1. The mice were weighed twice a week. The graph represents mice inoculated with cells derived from GBM1. (D and E) Neurosphere cells of the indicated GBMs were incubated in the absence of growth factors with 100 pM TGFβ1 and/or 2 μM TβRI inhibitor for 7 days and the number of newly formed neurospheres (D) and the total number of cells (E) were determined. (F) Representative images of GBM1 neurospheres treated as indicated in D and E.
FIG. 6. LIF mediates the increase of self-renewal of GIC by TGFβ. (A, B) GBM1, GBM2 and GBM3 neurosphere cells were treated with 100 pM TGFβ1, 20 ng/ml LIF and/or anti-LIF neutralizing antibody and 0.5 pM P6 in the absence of EGF and FGF and the number of newly formed neurospheres (A) or the total number of cells (B) was determined. (C) Representative images of GBM1 neurospheres treated as indicated in A and B.
The self-renewal of the neurospheres was evaluated by seeding an identical number of cells at a very low density in wells of a 96-well plate. The cells were treated, in the absence of growth factors, with the indicated compounds and the total number of new neurospheres formed after 7 days in culture was counted (Lee et al. (2008) Cancer Cell 13, 69-80; Reynolds and Weiss, (1996) Dev Biol 175, 1-13; Seaberg and van der Kooy, (2002) J Neurosci 22, 1784-1793).
It was decided to evaluate the effect of TGFβ on the capacity for self-renewal of GICs following a well described protocol based on the capacity of GICs to generate neurospheres (Reynolds and Weiss, 1996, Dev Biol. 175:1-13; Seaberg and van der Kooy, 2002, J Neurosci 22:1784-1793). The neurospheres derived from patients were disassociated into individual cells, treated with TGFβ or left untreated for 7 days in the absence of growth factors and the newly formed neurospheres and the total number of cells were counted. Following this protocol, the effect of TGFβ on the capacity for self-renewal of the GICs derived from three different patients was evaluated. […] These effects were blocked when an TGFβ I receptor inhibitor (TβRI) was added at the same time as TGFβ.
It was decided to assess whether LIF and JAK-STAT pathway mediated the increase of self-renewal of GICs by TGFβ. For this purpose, the neutralizing antibody against LIP and P6 was used to specifically block the effect of the secreted LIP on cells treated with TGFβ. The neurospheres were disassociated into individual cells and were treated with TGFβ, recombinant LIF, anti-LIF antibody and/or P6. The newly formed neurospheres and the total number of cells were counted. […] The treatment with the neutralizing antibody of LIP decreased the induction of the self-renewal of GICs by TGFβ.

Compound: TGFβ: TGFβ1 (R&D Systems), used at 100 pM according to the figure legends
- phosphorylation of STAT3 [1]: induced the phosphorylation of STAT3
- number of newly formed neurospheres [2]: significantly increased
- total number of cells [2]: increased

Compound: LIF: recombinant leukemia inhibitory factor, an IL-6 type cytokine (Chemicon)
- phosphorylation of STAT3 [1]: induced a quick phosphorylation of STAT3
- number of newly formed neurospheres [2]: increased
- total number of cells [2]: increased

Compound: NC(=O)c1ccc(-c2nc(-c3ccc4c(c3)OCO4)c(-c3ccccn3)[nH]2)cc1 [TβRI inhibitor, SB431542, reference compound]
- effect on the induction of p-STAT3 by TGFβ ([1]; 100 pM TGFβ1, 4 hours, absence of EGF and FGF, 2 pM TβRI inhibitor, 0.5 μM P6 or blocking antibody against LIF): prevented that effect
- effect of the isolated inhibitor on number of neurospheres and total number of cells ([2]; 2 μM TβRI inhibitor without TGFβ, 7 days, absence of growth factors): no significant effect
- effect on the induction of self-renewal of GICs by TGFβ (number of neurospheres, total number of cells) ([2]; added with 100 pM TGFβ1, 2 μM TβRI inhibitor, anti-LIF neutralizing antibody or 0.5 pM P6, absence of EGF and FGF): blocked

Reference: patent US11999782B2, “Therapeutic agents for the treatment of diseases associated with undesired cell proliferation” (Fundació Privada Institutció Catalana de Recerca I Estudis …, priority 2009, dated 2024)
